Measurements: PubChem BioAssay AID1918948 (Molecular Pharmacology Branch, DTP, NCI, 2023)
pIC50: −log10 of the molar value.

System: K-562 leukemia growth, % test/control
Experiment: Anticancer human tumor K-562 cell line growth inhibition;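 note: spheroids exposed to compounds for 7 days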;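 for viability, T/C: 100% = DMSO vehicle wells and lower values mean fewer viable cells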
Settings: spheroids with HUVEC and MSC; for pIC50: curve of first compound; for viability, T/C: stronger effect = lower value
Summary of the method: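 Multicellular complex spheroids of tumor cells with human endothelial cells (HUVEC) and mesenchymal stem cells; the LSD1 inhibitor iadademstat was combined with standard-of-care or investigational agents. Top concentration at or near clinical Cmax, half-log dilutions; final DMSO ≤0.25%.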

Q: What does the source list for `NS(=O)(=O)OCC1CC(n2ccc3c(NC4CCc5ccccc54)ncnc32)CC1O` (stereo not given) + NC1CC1c1ccc(-c2cccc(O)c2)cc1?
A: pIC50 (second compound 0.1 µM): > 8.02; pIC50 (second compound 0.316 µM): > 8.02; pIC50 (second compound 1 µM): > 8.02; pIC50 (second compound 3.16 µM): > 8.02; pIC50 (second compound 10 µM): > 8.02; viability, T/C (second compound 0.1 µM, first compound 0.00949 µM): 50.7%; viability, T/C (second compound 0.1 µM, first compound 0.03 µM): 32.8%; viability, T/C (second compound 0.1 µM, first compound 0.0949 µM): 37.7%; viability, T/C (second compound 0.1 µM, first compound 0.3 µM): 19.2%; viability, T/C (second compound 0.1 µM, first compound 0.949 µM): 11.2%; viability, T/C (second compound 0.1 µM, first compound 3 µM): 4.04%; viability, T/C (second compound 0.316 µM, first compound 0.00949 µM): 47%; viability, T/C (second compound 0.316 µM, first compound 0.03 µM): 29.9%; viability, T/C (second compound 0.316 µM, first compound 0.0949 µM): 32%; viability, T/C (second compound 0.316 µM, first compound 0.3 µM): 16.3%; viability, T/C (second compound 0.316 µM, first compound 0.949 µM): 10.3%; viability, T/C (second compound 0.316 µM, first compound 3 µM): 3.18%; viability, T/C (second compound 1 µM, first compound 0.00949 µM): 46.8%; viability, T/C (second compound 1 µM, first compound 0.03 µM): 27.1%; viability, T/C (second compound 1 µM, first compound 0.0949 µM): 32.8%; viability, T/C (second compound 1 µM, first compound 0.3 µM): 14.8%; viability, T/C (second compound 1 µM, first compound 0.949 µM): 10.3%; viability, T/C (second compound 1 µM, first compound 3 µM): 3.44%; viability, T/C (second compound 3.16 µM, first compound 0.00949 µM): 45.6%; viability, T/C (second compound 3.16 µM, first compound 0.03 µM): 25.7%; viability, T/C (second compound 3.16 µM, first compound 0.0949 µM): 30.2%; viability, T/C (second compound 3.16 µM, first compound 0.3 µM): 13.2%; viability, T/C (second compound 3.16 µM, first compound 0.949 µM): 8.49%; viability, T/C (second compound 3.16 µM, first compound 3 µM): 1.8%; viability, T/C (second compound 10 µM, first compound 0.00949 µM): 30.5%; viability, T/C (second compound 10 µM, first compound 0.03 µM): 19.8%; viability, T/C (second compound 10 µM, first compound 0.0949 µM): 21.2%; viability, T/C (second compound 10 µM, first compound 0.3 µM): 9.28%; viability, T/C (second compound 10 µM, first compound 0.949 µM): 2.95%; viability, T/C (second compound 10 µM, first compound 3 µM): 0.72%

Q: With `Cn1ncnc1C1c2n[nH]c(=O)c3cc(F)cc(c23)NC1c1ccc(F)cc1` (stereo not given) + NC1CCC(NC2CC2c2ccccc2)CC1 as the compound, how does the pIC50 (second compound 0.1 µM) read?
A: The pIC50 was less than 7.00.

Q: And the pIC50 (second compound 0.316 µM)?
A: The pIC50 was less than 7.00.

Q: And the pIC50 (second compound 1 µM)?
A: The pIC50 was less than 7.00.

Q: What about the pIC50 (second compound 3.16 µM) of the same compound?
A: The pIC50 was less than 7.00.

Q: And the pIC50 (second compound 10 µM)?
A: Its pIC50 is less than 7.00.

Q: What about the viability, T/C (second compound 0.1 µM, first compound 0.000316 µM) of the same compound?
A: Its viability, T/C is 102%.

Q: And the viability, T/C (second compound 0.1 µM, first compound 0.001 µM)?
A: The viability, T/C was 97.6%.

Q: And the viability, T/C (second compound 0.1 µM, first compound 0.00316 µM)?
A: Its viability, T/C is 101%.

Q: And the viability, T/C (second compound 0.1 µM, first compound 0.01 µM)?
A: The viability, T/C was 101%.

Q: What about the viability, T/C (second compound 0.1 µM, first compound 0.0316 µM) of the same compound?
A: The viability, T/C was 101%.

Q: And the viability, T/C (second compound 0.1 µM, first compound 0.1 µM)?
A: The viability, T/C was 97%.

Q: And the viability, T/C (second compound 0.316 µM, first compound 0.000316 µM)?
A: The viability, T/C was 101%.

Q: What about the viability, T/C (second compound 0.316 µM, first compound 0.001 µM) of the same compound?
A: Its viability, T/C is 102%.

Q: And the viability, T/C (second compound 0.316 µM, first compound 0.00316 µM)?
A: Its viability, T/C is 102%.

Q: And the viability, T/C (second compound 0.316 µM, first compound 0.01 µM)?
A: The viability, T/C was 99%.

Q: And the viability, T/C (second compound 0.316 µM, first compound 0.0316 µM)?
A: Its viability, T/C is 101%.

Q: And the viability, T/C (second compound 0.316 µM, first compound 0.1 µM)?
A: The viability, T/C was 98.9%.

Q: What about the viability, T/C (second compound 1 µM, first compound 0.000316 µM) of the same compound?
A: The viability, T/C was 108%.

Q: What about the viability, T/C (second compound 1 µM, first compound 0.001 µM) of the same compound?
A: The viability, T/C was 102%.

Q: What about the viability, T/C (second compound 1 µM, first compound 0.00316 µM) of the same compound?
A: The viability, T/C was 99.7%.

Q: What about the viability, T/C (second compound 1 µM, first compound 0.01 µM) of the same compound?
A: Its viability, T/C is 103%.

Q: What about the viability, T/C (second compound 1 µM, first compound 0.0316 µM) of the same compound?
A: The viability, T/C was 102%.

Q: What about the viability, T/C (second compound 1 µM, first compound 0.1 µM) of the same compound?
A: Its viability, T/C is 101%.

Q: And the viability, T/C (second compound 3.16 µM, first compound 0.000316 µM)?
A: The viability, T/C was 100%.

Q: What about the viability, T/C (second compound 3.16 µM, first compound 0.001 µM) of the same compound?
A: Its viability, T/C is 103%.

Q: And the viability, T/C (second compound 3.16 µM, first compound 0.00316 µM)?
A: Its viability, T/C is 104%.

Q: And the viability, T/C (second compound 3.16 µM, first compound 0.01 µM)?
A: The viability, T/C was 104%.

Q: What about the viability, T/C (second compound 3.16 µM, first compound 0.0316 µM) of the same compound?
A: Its viability, T/C is 104%.

Q: What about the viability, T/C (second compound 3.16 µM, first compound 0.1 µM) of the same compound?
A: The viability, T/C was 101%.

Q: And the viability, T/C (second compound 10 µM, first compound 0.000316 µM)?
A: Its viability, T/C is 99.3%.

Q: What about the viability, T/C (second compound 10 µM, first compound 0.001 µM) of the same compound?
A: The viability, T/C was 99.6%.

Q: What about the viability, T/C (second compound 10 µM, first compound 0.00316 µM) of the same compound?
A: The viability, T/C was 101%.

Q: What about the viability, T/C (second compound 10 µM, first compound 0.01 µM) of the same compound?
A: The viability, T/C was 101%.

Q: What about the viability, T/C (second compound 10 µM, first compound 0.0316 µM) of the same compound?
A: The viability, T/C was 98.5%.

Q: And the viability, T/C (second compound 10 µM, first compound 0.1 µM)?
A: Its viability, T/C is 96.1%.
